One data set has as its target rhFUCA1 (Homo sapiens (Human), UniProt P04066). As to the kind of experiment: In vitro fucosidase inhibition (4MU-FUC fluorescence). It is filed as biochemical. Conditions: 1 ng/mL rhFUCA1, 640 nM 4MU-FUC, pH 4.5, 37° C., 30 minutes. The procedure: Fucosidase inhibition was assessed by preparing a reaction mixture of 50 mM phosphate-citrate pH 4.5, 5 mM MgCl2, 640 nM 4-methylumbelliferyl-alpha-L-fucopyranoside (4MU-FUC), 1 ng/mL rhFUCA1 (R&D Systems), and compound II, III, or IV:
Reactions (100 μL) were incubated at 37° C. for 30 minutes and then quenched with the same volume of 600 mM citrate-carbonate buffer, pH 9. Fluorescence was measured by excitation at 360 nm and emission at 450 nm.

Data set [1] has as its system HepG2 cells. As to the kind of experiment: Metabolic labeling with tagged-fucose, flow cytometry. The format is cell-based, human. Conditions: for Mean Green Fluorescence (GRN-HLog): HepG2, 24 hours compound then 48 hours fucose alkyne, Alexa Fluor 488 Azide; for Fold over vehicle: mean green fluorescence, HepG2. The method, then:
Perturbations in glycoprotein metabolism were assayed by growing HepG2 cells without fucosidase inhibitors, or with compound II, III, or IV (see Example 2) for 24 hours, and then adding (3S,4R,5R,6S)-6-ethynyltetrahydro-2H-pyran-2,3,4,5-tetrayl tetra acetate, a per-acetylated analog of fucose containing an alkyne moiety in place of the 5′-methyl group (Click-iT™ Fucose Alkyne, Molecular Probes, Eugene, Oreg.) for an additional 48 hours. Cells were fixed, permeabilized, washed, and stained with Alexa Fluor 488 Azide to orthogonally label glycoproteins incorporating the fucose analog. Cells were then analyzed for fluorescence using a Guava 6HT-2L flow cytometer (ThermoFisher).

Data set [2] has as its system HepG2 cells. As to the kind of experiment: Cytotoxicity in HepG2 cells (XTT assay). The format is cell-based, human. Conditions: HepG2, 24 or 48 hours, compared to compound II. The procedure: To assess the compounds' cytotoxicity in cells, HepG2 cells were seeded in triplicate in 96-well plates at 1.5e4 cells/well in Minimum Essential Media, 10% FBS and 2 mM L-glutamine. Plated cells were allowed to recover for 48 hours. Medium was then replaced with the same media containing dilutions of compound II or IV (see Example 2), incubated for 24 or 48 hours, and subjected to XTT assay to measure viability (ATCC).
(In general: Formazan colour is commonly taken as a measure of viable cells.)

A further data set deals with fucosidase. As to conditions: Li et al. 2008; cited from earlier work.

SMILES strings stand for the structures.

Usually IC50 stands for the concentration that gives 50% inhibition.

Sequence of rhFUCA1 (P04066 32-466): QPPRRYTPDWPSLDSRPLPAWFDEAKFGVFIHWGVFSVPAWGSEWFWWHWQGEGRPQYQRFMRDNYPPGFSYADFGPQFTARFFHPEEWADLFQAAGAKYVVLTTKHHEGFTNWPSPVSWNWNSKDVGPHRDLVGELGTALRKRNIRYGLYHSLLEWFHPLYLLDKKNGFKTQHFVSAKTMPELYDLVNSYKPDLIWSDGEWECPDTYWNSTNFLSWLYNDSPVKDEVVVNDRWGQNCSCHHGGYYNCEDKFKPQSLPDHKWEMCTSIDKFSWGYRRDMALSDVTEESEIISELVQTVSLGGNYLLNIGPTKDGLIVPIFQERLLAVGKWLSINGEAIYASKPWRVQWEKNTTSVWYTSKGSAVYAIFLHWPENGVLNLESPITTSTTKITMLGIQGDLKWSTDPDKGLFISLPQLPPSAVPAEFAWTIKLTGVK

`O=C(NC[C@@H]1N[C@@H](CF)[C@@H](O)[C@@H](O)[C@@H]1O)c1cccc2c1C(=O)c1ccccc1-2` [Compound III] registered an IC50 against rhFUCA1 of 59 nM. Further, in the data set on HepG2 cells [1], the “Mean Green Fluorescence (GRN-HLog)” value is 1220 and the Fold over vehicle amounted to 0.43.
Take `C[C@@H]1N/C(=C\C(=O)Nc2cccc3c2C(=O)c2ccccc2-3)[C@@H](O)[C@H](O)[C@@H]1O` [Compound IV]: the IC50 against rhFUCA1 was found to be 1500 nM. Also, in the data set on HepG2 cells [1], the “Mean Green Fluorescence (GRN-HLog)” value amounted to 12900 and the Fold over vehicle came to 4.56. The “cytotoxicity (XTT viability)” value in the data set with HepG2 cells [2] is “reduced cytotoxicity at higher inhibitor concentrations compared to compound II”.
In the case of `CCCCN1C[C@H](O)[C@@H](O)[C@H](O)[C@H](C(=O)O)C1` [Faz, (3R,4R,5S,6S)-1-butyl-4,5,6-trihydroxyazepane-3-carboxylic acid], the “potency of fucosidase inhibition” value with fucosidase is on record as “low nanomolar range”.

The values above are taken from patent publication US10308607B2, “Fucosidase inhibitors” (HORIZON ORPHAN LLC, priority 2015, dated 2019).
